Patent US5547972A, “Therapeutic agents useful for treating inflammatory diseases” (The Boots Company PLC, priority 1991, dated 1996)
Structures can show the parent of a compound that is named as a salt. Where two headings read alike, the source gives them in different places.

How the values were obtained:
[1] = system: Zymosan Stimulated Macrophaqes; assay: Test A: Inhibition of Arachidonic Acid Release from Zymosan Stimulated Macrophages; assay type: cell-based, mouse (female MF1); conditions: read-out: Test A IC50
Description: Inhibition of Arachidonic Acid Release from Zymosan Stimulated Macrophaqes
Female MF1 mice (weighing 20 to 25 g) were killed using a rising concentration of CO2. The mice were laid on their backs and the abdomens wiped with 70% alcohol. The skin was pulled back, exposing the peritoneal wall. Medium A (5 ml) (see below) was injected into the peritoneal cavity of each mouse followed by approximately 1 ml of air using a 20 ml syringe and a 21 G×40 mm needle in order to form a suspension of macrophage cells. The medium and cells were then removed using a 19 G×40 mm needle. The resulting suspension was returned to a sterile beaker kept on ice. The extracts from all the mice were pooled and this pooled cell suspension was counted using a Coulter counter and adjusted to a final cell count of 1-1.3×10^6 cells/ml prior to labelling with [^3 H]-arachidonic acid. Typically five mice provided sufficient cells for each multiwell plate.
Sufficient [^3 H]-arachidonic acid in ethanol to give a final concentration of 1.6 μCi/ml (equivalent to 40 μCi/plate) was blown to dryness under nitrogen. The arachidonic acid was then resuspended in 1 or 2 ml of the cell suspension which was then mixed with the remainder of the cell suspension in a centrifuge bottle. The labelled cell suspension was then plated out into sterile plastic 96 flat-bottomed well plates (250 μl per well) and incubated overnight at 37° C. in a moist atmosphere of 5% CO2, 95% air.
The following day, non-adherent cells were removed by washing 3 times with sterile phosphate buffered saline (PBS). The adherent peritoneal macrophages were then cultured for a further 24 hours in the presence or absence of drugs, in medium B (see below) at 37° in a 5% CO2 atmosphere in order to measure the effects of drugs on the spontaneous release of arachidonic acid in the absence of stimulus. After this incubation, supernatants were removed to give media 1 and stored in sealed multi-well plates at 4° C. prior to scintillation counting. Drugs which potentiated spontaneous release of arachidonic acid (125% of controls) were deemed to be toxic at the concentration at which this phenomenon occurred. The supernatants were replaced by fresh medium C containing fresh drug and a stimulus. Three drugs were tested at six concentrations (100, 50, 20, 10, 5 and 1 μM) in replicates of four on each plate. The other wells contained controls consisting of a positive control (e.g. dexamethasone), medium (B) only and medium C only.
Incubation was then continued for a further 5 hours, whereupon the supernatants were collected to give media 2 and the adherent cells washed with PBS. The cells were then lysed with 100 μl of 0.1% TRITON® X100 in a 0.1% solution of bovine serum albumin in 0.9% saline and mechanically disrupted to give cell lysates. These supernatants (media 2) and cell lysates (Cells) were also stored in sealed multi-well plates at 4° C. prior to scintillation counting. 200 μl aliquots of media, or 100 μl aliquots of cells were counted using 2 ml of OPTIPHASE "HIGH SAFE" (Trademark of LKB) as scintillant.
The percentage of arachidonic acid released was calculated using the mean values for each group of 4 wells in the following equation. [formula] cpm=courts per minute
The value for the arachidonic acid release in the absence of stimulus (spontaneous, cpm of media 2) from cells which had been exposed to neither stimulus nor drug was subtracted from all equivalent values (cpm media 2, stimulated with or without drug) to give the net stimulated release. The percentage inhibition of arachidonic acid release caused by a drug may then be calculated using the following equation. [formula]
Compounds of formula I were tested at six concentrations (100, 50, 20, 10, 5 and 1 μM) and IC50 values calculated. Compounds with IC50 values<100 μM are considered to be active. Advantageous compounds have an IC50 value <50 μM.
Medium A (for peritoneal lavage) […]

[2] = system: Carrageenan-induced rat paw oedema; assay: Test B: Carrageenan-induced rat paw oedema test; assay type: in vivo, rat (female); conditions: inhibition of paw oedema, 1 h before carrageenan, 3 h after injection; for inhibition in vivo at 100 mg/kg: Rattus norvegicus, po, 3 h; for Test B % inhibition at 100 mg/kg: oral
Description: Carrageenan-induced rat paw oedema test
Female rats, weight range 125-150 g were fasted overnight. One of the hind legs of each animal was marked with a line at the connection between the cuboid/navicular and calcaneus/talus bones. Groups of six rats were orally dosed at 10 ml/kg, in random order, with a given dose of the test compound given as a solution or suspension in 10% (w/v) aqueous acacia solution.
One hour after dosing, 0.1 ml of 1% (w/v) sterile carrageenan λ in normal saline was injected deeply into the plantar surface of the marked hind foot of each rat. The volume of the foot (up to the marked line) was measured immediately after injection using duplicate water displacement readings. Three hours after injection the foot volume was measured again and the percentage increase in foot volume relative to the initial reading was calculated.
The increase in foot volume (i.e. the degree of oedema) in drug treated animals when compared with that in the drug untreated control gave the degree of inhibition of paw oedema by the drug.
Compounds were considered to be active in this test if they produced a 20% or greater inhibition of paw oedema in at least two out of three tests after oral dosing at 100 mg/kg. Statistical significance was assessed using the Student't test for single dose studies and Dunnett's test for multiple dose studies. More advantageous compounds were active in both Tests A and B,

[3] = Mus musculus, Macrophage, 5 h, inhibition of arachidonic acid release, six concentrations (100, 50, 20, 10, 5 and 1 μM), 5 h with zymosan
[4] = inhibition of arachidonic acid release, six concentrations (100, 50, 20, 10, 5 and 1 μM), 5 h with zymosan

SMILES	IC50 [1, 3] [µM]	inhibition in vivo at 100 mg/kg [2] [%]	other results
CC(NCCCn1ccnc1)c1ccc(C(C)(C)C)cc1 (stereo not shown) [Example 19, N-[1-(4-Tert-butylphenyl)ethyl]-3-(imidazol-1-yl)propylamine]	12	27	–
CCCCOc1ccc(C(C)NCCCn2ccnc2)cc1 (stereo not shown) [Example 22, N-[1-(4-Butoxyphenyl)ethyl]-3-(imidazol-1-yl)propylamine dioxalate]	21	17	–
CC(C)(NCCCCCn1ccnc1)c1ccc(Cl)cc1 [Example 62, N-[1-(4-chlorophenyl)-1-methylethyl]-5-(imidazol-1-yl)pentylamine]	21	42	–
Clc1ccc(C2(NCCCn3ccnc3)CC2)cc1 [Example 82, N-[1-(4-Chlorophenyl)cycloprop-1-yl]-3-(imidazol-1-yl)propylamine dihydrochloride]	16	38	–
CC(NCCCCn1ccnc1)c1ccc(Cl)cc1 (stereo not shown) [Example 26, N-[1-(4-Chlorophenyl)ethyl]-4-(imidazol-1-yl)butylamine]	56	40	–
CC(NCCCn1ccnc1-c1ccccc1)c1ccc(Cl)cc1 (stereo not shown) [Example 25, N-[1-(4-Chlorophenyl)ethyl]-3-(2-phenylimidazol-1-yl)propylamine dihydrochloride hydrate]	19	34	–
CC(C)c1nccn1CCCNCc1ccc(Cl)cc1 [Example 71, N-(4-Chlorobenzyl)-3-(2-isopropylimidazol-1-yl)propylamine-dihydrochloride]	25	10	–
CC(NCCCn1ccnc1)c1ccc(Cl)cc1O (stereo not shown) [Example 29, 5-chloro-2-{1-[3-(imidazol-1-yl)propylamino]ethyl}phenol dihydrochloride]	34	36	–
Cc1cn(CCCNC(C)c2ccc(Cl)cc2)c(C)n1 (stereo not shown) [Example 31, N-[1-(4-chlorophenyl)ethyl]-3-(2,4-dimethylimidazol-1-yl)propylamine dihydrochloride]	10	25	–
CC(NCCCn1ccnc1)c1cccc(Cl)c1 (stereo not shown) [Example 7, N-[1-(3-Chlorophenyl)ethyl]-3-(imidazol-1-yl)propylamine]	94	48	–
CC(C)c1nccn1CCCNC(C)c1ccc(Cl)cc1 (stereo not shown) [Example 65, N-[1-(4-Chlorophenyl)ethyl]-3-(2-isopropylimidazol-1-yl)propylamine]	18	27	–
CC(NCCCn1ccnc1)c1ccc(Cl)cc1.Cl.Cl (single isomer, unassigned; (-)) [Example 57, (-)N-[1-(4-Chlorophenyl)ethyl]-3-(imidazol-1-yl)propylamine dihydrochloride]	–	–	IC50 ([1]; inhibition of arachidonic acid release, six concentrations (100, 50, 20, 10, 5 and 1 μM), 5 h with zymosan, dihydrochloride): 20 µM; Test B % inhibition at 100 mg/kg ([2]; dihydrochloride): 48%
Clc1ccc(CNCCCn2ccnc2)cc1Cl [Example 35, N-(3,4-dichlorobenzyl)-3-(imidazol-1-yl)propylamine]	21	47	–
Clc1ccc(C(NCCCn2ccnc2)c2ccccc2)cc1 (stereo not drawn) [Example 28, N-[α-(4-chlorophenyl)benzyl]-3-(imidazol-1-yl)propylamine]	11	48	–
CC(NCCCn1ccnc1)c1ccc(Cl)cc1 (single isomer, unassigned; (+)) [Example 56, (+) N-[1-(4-Chlorophenyl)ethyl]-3-(imidazol-1-yl)propylamine dihydrochloride]	16	57	–
CC(NCCCn1ccnc1)c1ccc(Cl)cc1 (single isomer, unassigned; (-)) [Example 92, (-) N-[1-(4-chlorophenyl)ethyl]-3-(imidazol-1-yl)propylamine (-)-ditartrate]	–	–	IC50 [1, 4]: 20 µM; Test B % inhibition at 100 mg/kg [2]: 48%
CC(NCCCn1ccnc1)c1ccc(Oc2ccccc2)cc1 (stereo not shown) [Example 16, 3-(Imidazol-1-yl)-N-[1-(4-phenoxyphenyl)ethyl]propylamine]	–	9	IC50 ([1]; Mus musculus, Macrophage, 5 h): 8 µM
CC(C)(NCCCn1ccnc1)c1ccc(Cl)cc1 [Example 59, N-[1-(4-chlorophenyl)-1-methylethyl]-3-(imidazol-1-yl)propylamine]	–	65	IC50 ([1]; inhibition of arachidonic acid release, six concentrations (100, 50, 20, 10, 5 and 1 μM), 5 h with zymosan, listed as 68 (1)): 35 µM; IC50 [1, 4]: 35 µM
CC(NCCCn1ccnc1)c1ccc(Br)cc1 (stereo not shown) [Example 14, N-[1-(4-Bromophenyl)ethyl]-3-(imidazol-1-yl)propylamine]	60	60	–
CC(NCCCn1ccnc1)c1ccc(Cl)c(C(F)(F)F)c1 (stereo not shown) [Example 9, N-[1-(4-Chloro-3-trifluoromethylphenyl)ethyl]-3-(imidazol-1-yl)propylamine]	22	78	–
CCC(CC)(NCCCn1ccnc1)c1ccc(Cl)cc1 [Example 76, 1-(4-Chlorophenyl)-1-ethyl-3'-(imidazol-1-yl)dipropylamine dihydrochloride]	15	31	–
Clc1ccc(CNCCCn2cnc(Cl)c2Cl)cc1 [Example 64, N-(4-chlorobenzyl)-3-(4,5-dichloroimidazol-1-yl)propylamine dihydrochloride]	18	30	–
CC(NCCCn1ccnc1)c1ccc(OCc2ccccc2)cc1 (stereo not shown) [Example 5, N-[1-(4-Benzyloxyphenyl)ethyl]-3-(imidazol-1-yl)propylamine]	12	5	–
CCC(c1ccc(Cl)cc1)N(C)CCCn1ccnc1 (stereo not shown) [Example 91, N-[1-(4-chlorophenyl)propyl]-3-(imidazol-1-yl)-N-methylpropylamine]	62	58	–
CCc1nccn1CCCNC(C)c1ccc(Cl)cc1 (stereo not shown) [Example 53, N-[1-(4-Chlorophenyl)ethyl]-3-(2-ethylimidazol-1-yl)propylamine dihydrochloride]	31	27	–
Cc1nccn1CCCNC(C)c1ccc(Cl)cc1 (stereo not shown) [Example 52, N-[1-(4-chlorophenyl)ethyl]-3-(2-methylimidazol-1-yl)propylamine]	–	–	Test B % inhibition at 100 mg/kg [2]: 27%
